{"source": "ChEMBL document CHEMBL5214900", "about": "“Design, Synthesis, and Biological Evaluation of Membrane-Active Bakuchiol Derivatives as Effective Broad-Spectrum Antibacterial Agents” (J Med Chem, 2021)", "key": {"[1]": {"tested_on": "Staphylococcus aureus", "assay": "Antibacterial activity against methicillin-resistant Staphylococcus aureus NCTC10442 assessed as inhibition of bacterial growth incubated for 24 hrs by CLSI based broth dilution method", "assay_type": "functional"}, "[2]": {"tested_on": "Escherichia coli", "assay": "Antibacterial activity against Escherichia coli ATCC 25922 assessed as inhibition of bacterial growth incubated for 24 hrs by CLSI based broth dilution method", "assay_type": "functional"}, "[3]": {"tested_on": "Acinetobacter baumannii", "assay": "Antibacterial activity against Acinetobacter baumannii ATCC 17978 assessed as inhibition of bacterial growth incubated for 24 hrs by CLSI based broth dilution method", "assay_type": "functional"}, "[4]": {"tested_on": "Acinetobacter baumannii", "assay": "Antibacterial activity against Acinetobacter baumannii R2889 assessed as inhibition of bacterial growth incubated for 24 hrs by CLSI based broth dilution method", "assay_type": "functional"}, "[5]": {"tested_on": "Staphylococcus aureus", "assay": "Antibacterial activity against Staphylococcus aureus NCTC10442 assessed as fold increase in MIC incubated for 24 hrs in presence of 140 mM Na+ by CLSI based broth dilution method", "assay_type": "functional"}, "[6]": {"tested_on": "Acinetobacter baumannii", "assay": "Antibacterial activity against Acinetobacter baumannii ATCC 17978 assessed as fold increase in MIC incubated for 24 hrs in presence of 140 mM Na+ by CLSI based broth dilution method", "assay_type": "functional"}, "[7]": {"tested_on": "Cell membrane", "assay": "Disruption of membrane integrity in Staphylococcus aureus ATCC 29213 assessed as increase in red fluorescence intensity at 8 times MIC incubated for 2 hrs by SYTO 9/PI staining based fluorescence analysis", "assay_type": "subcellular"}, "[8]": {"tested_on": "Pseudomonas aeruginosa", "assay": "Induction of cell death in Pseudomonas aeruginosa ATCC 9027 assessed as residual living cells at 8 times MIC incubated for 2 hrs by SYTO 9/PI staining based fluorescence analysis relative to control", "assay_type": "functional"}, "[9]": {"tested_on": "Lipoteichoic acid", "assay": "Displacement of BODIPY-TR-cadaverine from Bacillus subtilis Lipoteichoic acid at 1 times MIC measured for 30 mins by fluorescence based microplate reader assay relative to control"}, "[10]": {"tested_on": "Lipopolysaccharide (LPS)", "assay": "Displacement of BODIPY-TR-cadaverine from Escherichia coli Lipopolysaccharide at 2 times MIC measured for 30 mins by fluorescence based microplate reader assay relative to control"}, "[11]": {"tested_on": "Lipopolysaccharide (LPS)", "assay": "Displacement of BODIPY-TR-cadaverine from Escherichia coli Lipopolysaccharide at 8 times MIC measured for 30 mins by fluorescence based microplate reader assay relative to control"}, "[12]": {"assay": "Cytotoxicity against mouse NCTC clone 929 cells assessed as cell viability at 50 ug/ml incubated for 24 hrs by CCK-8 assay relative to control", "assay_type": "toxicity, cell-based", "conditions": "at 50 µg/mL, read-out: Activity"}, "[13]": {"assay": "Cytotoxicity against HEK293 cells assessed as cell viability at 50 ug/ml incubated for 24 hrs by CCK-8 assay relative to control", "assay_type": "toxicity, cell-based", "conditions": "human, at 50 µg/mL, read-out: Activity"}, "[14]": {"tested_on": "Escherichia coli", "assay": "Antibiofilm activity against Escherichia coli ATCC 25922 assessed reduction in biofilm formation at 0.39 ug/ml measured after 24 hrs by crystal violet staining based assay relative to control", "assay_type": "functional", "set-up": "scale not given: the % may be the effect or the level left", "conditions": "dose 0.39 µg/ml"}, "[15]": {"tested_on": "Staphylococcus aureus", "assay": "Antibiofilm activity against Staphylococcus aureus ATCC 29213 assessed reduction in biofilm formation at 6.25 ug/ml measured after 24 hrs by crystal violet staining based assay relative to control", "assay_type": "functional", "set-up": "scale not given: the % may be the effect or the level left", "conditions": "dose 6.25 µg/ml"}, "[16]": {"tested_on": "Escherichia coli", "assay": "Antibiofilm activity against Escherichia coli ATCC 25922 assessed reduction in biofilm formation at 0.78 ug/ml measured after 24 hrs by crystal violet staining based assay relative to control", "assay_type": "functional", "set-up": "scale not given: the % may be the effect or the level left", "conditions": "dose 0.78 µg/ml"}, "[17]": {"tested_on": "Staphylococcus aureus", "assay": "Antibacterial activity against Staphylococcus aureus ATCC 29213 in C57BL/6 mouse model of bacterial keratitis assessed as log reduction in number of viable bacterial colonies in infected cornea at 0.8 mg/ml, TOP administered 4 times a day for 3 consecutive days", "assay_type": "functional", "conditions": "time 3 day"}, "[18]": {"tested_on": "Pseudomonas aeruginosa", "assay": "Antibacterial activity against Pseudomonas aeruginosa ATCC 9027 in C57BL/6 mouse model of bacterial keratitis assessed as log reduction in number of viable bacterial colonies in infected cornea at 0.8 mg/ml, TOP administered 4 times a day for 3 consecutive days", "assay_type": "functional", "conditions": "time 3 day"}}, "note": "Active and inactive are the calls of the source. No cut-off for these calls is given here."}
{"smiles": "C=C[C@@](C)(/C=C/c1ccc(OCCCCN(CCCN(C)C)CCCN(C)C)cc1)CCC=C(C)C", "values": [{"measurement": "MIC", "setting": "[1]", "value": 1.56, "unit": "µg/mL"}, {"measurement": "MIC", "setting": "[2]", "value": 3.12, "unit": "µg/mL"}, {"measurement": "MIC", "setting": "[3]", "value": 3.12, "unit": "µg/mL"}, {"measurement": "MIC", "setting": "[4]", "value": 3.12, "unit": "µg/mL"}, {"measurement": "fold change (FC)", "setting": "[5]", "value": "<2"}, {"measurement": "fold change (FC)", "setting": "[6]", "value": "<2"}, {"measurement": "Activity", "setting": "[7]", "value": "Active"}, {"measurement": "Activity", "setting": "[8]", "value": 0.3, "unit": "%"}, {"measurement": "Activity", "setting": "[9]", "value": 25.4, "unit": "%"}, {"measurement": "Activity", "setting": "[10]", "value": 53.3, "unit": "%"}, {"measurement": "Activity", "setting": "[11]", "value": 85.6, "unit": "%"}, {"measurement": "viability at 24 h, 50 ug/ml", "setting": "[12]", "value": 36, "unit": "%"}, {"measurement": "viability at 24 h, 50 ug/ml", "setting": "[13]", "value": 14.4, "unit": "%"}, {"measurement": "Activity", "setting": "[14]", "value": 4.04, "unit": "%"}, {"measurement": "Activity", "setting": "[15]", "value": 98.78, "unit": "%"}, {"measurement": "Activity", "setting": "[16]", "value": 8.71, "unit": "%"}, {"measurement": "log(activity)", "setting": "[17]", "value": 5.7}, {"measurement": "log(activity)", "setting": "[18]", "value": 2.95}]}
